Tested on: advanced or metastatic solid tumors
Experiment: Trial 1403-0001 efficacy: tumor response according to RECIST1.1
Type: in vivo, human
Settings: for Best overall response / days of exposure to the MDM2i of formula I: MDM2 AMPL
Excerpt: Trial 1403-0001 was a first in human Phase Ia/Ib, open label, multicenter, dose-escalation study of the MDM2-antagonist of formula I in patients with advanced or metastatic solid tumors. The Phase Ia dose escalation part aimed to define the Maximum Tolerated Dose (MTD) and the Recommended Dose for Expansion (RDE) for the MDM2-antagonist of formula I based on safety and tolerability, pharmacokinetics, pharmacodynamics, and preliminary efficacy. The RDE will be further explored in the Phase Ib expansion part of the trial.
15 patients in Arm B experienced a stable disease in arm B (representing 60% of all treated patients).
A treatment with a drug candidate (here the MDM2-antagonist of formula I) leading to a “PARTIAL RESPONSE (PR)” is defined by a ≥30% decrease in the sum of diameters of target lesions, taking as reference the sum of diameters of the target lesions prior to treatment (=baseline sum of diameters) according to the RECIST1.1 criteria (Eisenhauer et al, Eur. J. Canc. (2009), Vol. 45, pp. 228-247).
A treatment with a drug candidate (here the MDM2-antagonist of formula I) leading to a “PROGRESSIVE DISEASE (PD)” is defined by a ≥20% increase in the sum of diameters of target lesions, taking as reference the smallest sum of diameters of target lesions on study (including the baseline sum of diameters if that is the smallest sum of diameters of target lesions on study) according to the RECIST1.1 criteria (Eisenhauer et al, Eur. J. Canc. (2009), Vol. 45, pp. 228-247).
A treatment with a drug candidate (here the MDM2-antagonist of formula I) leading to a “STABLE DISEASE (SD)” is defined by neither sufficient shrinkage to qualify for PR nor sufficient increase to qualify for PD, taking as reference the smallest sum of diameters of the target lesions on study (including the baseline sum of diameters if that is the smallest sum of diameters on study) according to the RECIST1.1 criteria (Eisenhauer et al, Eur. J. Canc. (2009), Vol. 45, pp. 228-247).

[1] = Arm A patient 1392001001, WD LPS, 20 mg D1q3w
[2] = Arm A patient 1392001006, DDLPS, 50 mg D1q3w
[3] = Arm A patient 1840003004, DDLPS, 60 mg D1q3w, no prior therapy
[4] = Arm A patient 1840003006, DDLPS, 50 mg D1q3w
[5] = Arm A patient 1840003008, DDLPS, 60 mg D1q3w
[6] = Arm B patient 1392001005, DDLPS, 15/15 mg D1D8q4w
[7] = Arm B patient 1392001007, DDLPS, 30/30 mg D1D8q4w
[8] = Arm B patient 1392001009, WD LPS, 60/60 mg D1D8q4w
[9] = Arm B patient 1840002005, DDLPS, 20/20 mg D1D8q4w, no prior therapy
[10] = Arm B patient 1840003009, DDLPS, 45/45 mg D1D8q4w
[11] = Arm B patient 1840003010, DDLPS, 45/45 mg D1D8q4w
[12] = Arm B patient 1840003011, WD LPS, 30/30 mg D1D8q4w
[13] = Arm B patient 1840003014, WD LPS, 45/45 mg D1D8q4w

## Cc1c(C(=O)O)ccc2c3n(nc12)[C@@H]1[C@H](C3)N(CC2CC2)[C@@]2(C(=O)Nc3cc(Cl)ccc32)[C@H]1c1cccc(Cl)c1F [MDM2-antagonist of formula I, (2′S,3′S,3a'S,10a'S)-6-chloro-3′-(3-chloro-2-fluorophenyl)-1′-(cyclopropylmethyl)-6′-methyl-2-oxo-1,2,3′,3a′,10′,10a′-hexahydro-1′H-spiro[indole-3,2′-pyrrolo[2′,3′:4,5]pyrrolo[1,2-b]indazole]-7′-carboxylic acid]
[1]
  Best overall response: PR (PR, tumor shrinkage of at least −30%)
  days of exposure to the MDM2i of formula I: 778 days
[2]
  Best overall response: SD (SD, tumor growth modification between +20% and −30%)
  days of exposure to the MDM2i of formula I: 107 days
Arm A patient 1392001011, WDLPS, 80 mg D1q3w
  Best overall response: PR (PR, tumor shrinkage of at least −30%)
Arm A patient 1392001011, WDLPS, 80 mg D1q3w, ongoing
  days of exposure to the MDM2i of formula I: 228 days
Arm A patient 1840002004, DDLPS, 45 mg D1q3w
  Best overall response: SD (SD, tumor growth modification between +20% and −30%)
Arm A patient 1840002004, DDLPS, 45 mg D1q3w, third line
  days of exposure to the MDM2i of formula I: 353 days
[3]
  Best overall response: SD (SD, tumor growth modification between +20% and −30%)
  days of exposure to the MDM2i of formula I: 342 days
[4]
  Best overall response: SD (SD, tumor growth modification between +20% and −30%)
  days of exposure to the MDM2i of formula I: 85 days
[5]
  Best overall response: SD (SD, tumor growth modification between +20% and −30%)
  days of exposure to the MDM2i of formula I: 57 days
Arm A patient 1840003013, WDLPS, 80 mg D1q3w
  Best overall response: SD (SD, tumor growth modification between +20% and −30%)
Arm A patient 1840003013, WDLPS, 80 mg D1q3w, ongoing
  days of exposure to the MDM2i of formula I: 214 days
Arm A patient 1846002602, DDLPS, 45 mg D1q3w
  Best overall response: SD (SD, tumor growth modification between +20% and −30%)
Arm A patient 1846002602, DDLPS, 45 mg D1q3w, second line
  days of exposure to the MDM2i of formula I: 709 days
Arm A patient with p53-wildtype MDM2-amplified biliary adenocarcinoma, partial response
  tumor shrinkage: 54%
[6]
  Best overall response: SD (SD, tumor growth modification between +20% and −30%)
  days of exposure to the MDM2i of formula I: 491 days
[7]
  Best overall response: SD (SD, tumor growth modification between +20% and −30%)
  days of exposure to the MDM2i of formula I: 218 days
[8]
  Best overall response: SD (SD, tumor growth modification between +20% and −30%)
  days of exposure to the MDM2i of formula I: 105 days
[9]
  Best overall response: SD (SD, tumor growth modification between +20% and −30%)
  days of exposure to the MDM2i of formula I: 542 days
[10]
  Best overall response: SD (SD, tumor growth modification between +20% and −30%)
  days of exposure to the MDM2i of formula I: 274 days
[11]
  Best overall response: SD (SD, tumor growth modification between +20% and −30%)
  days of exposure to the MDM2i of formula I: 64 days
[12]
  Best overall response: SD (SD, tumor growth modification between +20% and −30%)
  days of exposure to the MDM2i of formula I: 100 days
Arm B patient 1840003012, WD LPS, 60/60 mg D1D8q4w
  Best overall response: PR (PR, tumor shrinkage of at least −30%)
Arm B patient 1840003012, WD LPS, 60/60 mg D1D8q4w, ongoing
  days of exposure to the MDM2i of formula I: 221 days
[13]
  Best overall response: SD (SD, tumor growth modification between +20% and −30%)
  days of exposure to the MDM2i of formula I: 127 days
Arm B patient with p53 wildtype MDM2-amplified pancreatic adenocarcinoma (PAC), partial response
  tumor shrinkage: 41%
DDLPS patient, 45 mg, second line therapy, for 709 days
  tumor shrinkage: approx. 5%
DDLPS patient, 45 mg, third line therapy, for 353 days
  tumor shrinkage: approx. 10%
Arm A (29 treated)
  Disease control, % of patients: (75.9) %
  Disease control, number of patients: 22
  Partial response, number of patients: 3
  Progressive disease, % of patients: (20.7) %
  Progressive disease, number of patients: 6
  Stable disease, number of patients: 19
Arm B (25 treated)
  Disease control, % of patients: (68) %
  Disease control, number of patients: 17
  Partial response, number of patients: 2
  Progressive disease, % of patients: (20) %
  Progressive disease, number of patients: 5
  Stable disease, number of patients: 15
Both arms (54 treated)
  Disease control, % of patients: (72) %
  Disease control, number of patients: 39
  Partial response, number of patients: 5
  Progressive disease, % of patients: (20.3) %
  Progressive disease, number of patients: 11
  Stable disease, number of patients: 34
Eleven dedifferentiated liposarcoma (DDLPS) patients
  approximate median PFS: around 10.8 months
Of seven well differentiated liposarcoma (WDLPS) patients
  patients with partial response: three
One patient in Arm A
  duration of response: more than 2 years

— US20230058171A1, “NEW ORAL PHARMACEUTICAL COMPOSITION FOR CANCER THERAPY” (BOEHRINGER INGELHEIM INTERNATIONAL GMBH, priority 2021, published 2023)
